Experimental findings from ChEMBL document CHEMBL1143562 (J Med Chem, 2005) are described below.

Calls of active or inactive are those of the source. The calls are words filed in the database; no cut-off is given here.

As a reminder, the IC50 is the concentration that gives 50% inhibition. A low value points to inhibition by little substance.

The subject of test [1] is Rattus norvegicus. Description: Inhibition of carrageenan-induced thermal hyperalgesia in rats 1 hr after administration of a 30 mg/kg dose of test compound; NA-not active. The class given is functional, organism-based. Further details: dose 30 mg/kg.
A short description of test [2]: Inhibition of [3H]gabapentin binding to pig brain membranes. Further details: species or system Sus scrofa, Membrane.
Test [3] in a line: Inhibition of [3H]leucine uptake into CHO cells by L-amino acid transporters. The test is classed as functional, cell-based. Particulars: Cricetulus griseus.
In test [4] the test system is Rattus norvegicus. In words: The ability of 30 mg/kg oral dose of compound to restore punished drinking behavior in rats expressed as percent reference activity (PRA); NA-not active. The test is classed as functional, organism-based. Further details: dose 30 mg/kg.
Test [5] deals with Mus musculus. Description: Percent protection of DBA/2 mice from audiogenically induced tonic seizures at a dose of 30 mg/kg of test compound. The class given is functional.
Test [6] deals with Rattus norvegicus. Description: The ability of 30 mg/kg oral dose of compound to restore punished drinking behavior in rats expressed as percent reference activity (PRA). The test is classed as functional.
Test [7] has as its system Rattus norvegicus. Description: Inhibition of carrageenan-induced thermal hyperalgesia in rats 1 hr after administration of a 30 mg/kg dose of test compound. The test is classed as functional.

For `CCCC[C@@H](CC(=O)O)[C@@H](C)N`, the CITH entry in test [1] was “inactive”. Also, the concentration for half-maximal inhibition (IC50) in test [2] is 1.03 µM; in test [3] it was above 8300 µM. The “WLC PRA” value in test [4] is “inactive”. Further, the Protection in test [5] worked out at 0%.
In the case of `CC(C)C[C@@H](CN)CC(=O)O`, the CITH entry in test [1] was “inactive”. Further, the IC50 in test [3] was determined as 355 µM. Besides, the “WLC PRA” value in test [4] was “inactive”. In addition, in test [5], the Protection was 0%.
Take `CCC(CC)C(CN)CC(=O)O` (stereo not drawn): in test [1], the CITH result was “inactive”. Further, the IC50 in test [2] amounted to 0.203 µM; in test [3] it was 146 µM. Further, the “WLC PRA” value in test [4] was “inactive”. Moreover, the Protection in test [5] was found to be 20%.
Turning to `CC(C)C[C@@H](CCN)C(=O)O`, the IC50 in test [2] was 2.06 µM; in test [3] it was above 10000 µM. The “WLC PRA” value in test [4] is “inactive”. The same molecule yielded a Protection in test [5] of 0%.
Consider `CC(C)[C@H](C)[C@H](CN)CC(=O)O`, for which the CITH result in test [1] was “inactive”. This molecule showed an IC50 in test [3] of 28 µM. Also, the “WLC PRA” value in test [4] is “inactive”. The Protection in test [5] is 20%.
On to `NCC1(CC(=O)O)CCCCC1` [GABAPENTIN], for which the half-maximal inhibitory concentration (IC50) in test [2] is 0.07 µM; in test [3], 30 µM. Moreover, the “WLC PRA” value in test [6] is reported as 60. Besides, the Protection in test [5] is given as 100%. Also, the CITH in test [7] came out at 48.
Consider `CC(C)C[C@@H](CC(=O)O)[C@@H](C)N`, for which the CITH result in test [1] was “inactive”. For the same molecule, the IC50 in test [2] is 0.48 µM; in test [3], above 100000 µM. Besides, in test [4], the “WLC PRA” value was “inactive”. In test [5], the Protection was 0%.
With `CCC(CC)CC(CN)CC(=O)O` (stereo not drawn), in test [1], the CITH result is “inactive”. Moreover, the IC50 in test [2] amounted to 1.33 µM; in test [3] it was 142 µM. In addition, the “WLC PRA” value in test [4] was “inactive”. In test [5], this molecule had a Protection of 0%.
With `CC(C)C[C@H](CN)CC(=O)O` [PREGABALIN], in test [6], the “WLC PRA” value came to 100. In test [3], this molecule returned an IC50 of 158 µM. This molecule displayed a Protection in test [5] of 100%. The molecule also gave a CITH in test [7] of 52.
For `CC(C)CC(C)(CN)CC(=O)O` (stereo not drawn), the CITH entry in test [1] was “inactive”. The molecule further came in with a half-maximal inhibitory concentration (IC50) in test [3] of 89 µM. Besides, the “WLC PRA” value in test [4] is “inactive”. For the same molecule, the Protection in test [5] came out at 0%.
Regarding `CCC(CN)(CC(=O)O)CC(C)C` (stereo not drawn), the IC50 in test [2] was found to be 8.56 µM; in test [3] it was 60 µM. In test [4], the “WLC PRA” value was “inactive”. The molecule also returned a Protection in test [5] of 20%.
Regarding `CC(C)C[C@@H](CC(=O)O)[C@H](C)N`, the CITH entry in test [1] was “inactive”. In addition, the figures for the 50% inhibitory concentration (IC50) in test [2] and in test [3] were 0.039 µM and above 10000 µM, respectively. The “WLC PRA” value in test [4] was “inactive”. In test [5], this molecule had a Protection of 0%.
With `CC(C)[C@@H](C)[C@H](CN)CC(=O)O`, the 50% inhibitory concentration (IC50) in test [2] came out at 0.021 µM; in test [3], 157 µM. Moreover, the “WLC PRA” value in test [6] turned out to be 152. In test [5], this molecule returned a Protection of 100%. The molecule further displayed a CITH in test [7] of 71.
`CCC[C@@H](CC(=O)O)[C@@H](C)N`: in test [1], the CITH result was “inactive”. Further, the half-inhibitory concentration (IC50) in test [2] is 1.29 µM; in test [3], above 8300 µM. Further, the “WLC PRA” value in test [4] was “inactive”. Further, in test [5], the Protection is on record as 0%.
Take `CC(C)C[C@H](CN)[C@H](C)C(=O)O`: the values for the concentration for half-maximal inhibition (IC50) in test [2] and in test [3] were above 10 µM and 117 µM, respectively. Further, the “WLC PRA” value in test [4] was “inactive”. For the same molecule, the Protection in test [5] is listed as 0%.
